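Tested at 5 concentrations; 48 h exposure; 96-well plates; endpoints linearly interpolated, else capped at highest concentration. GI50: concentration for 50% inhibition of growth.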 The source made the active and inactive calls. No stated cut-off is given here; in the data, active = GI50 up to about 1.1 µM and inactive = higher.
Key:
Test in all cases: DTP human tumour cell line panel, 48 h
SNB-78 = system: SNB-78
M19-MEL = system: M19-MEL
DMS-114 = system: DMS-114
KM-20L2 = system: KM-20L2
HOP-18 = system: HOP-18
LXFL 529 = system: LXFL 529
DLD-1 = system: DLD-1
XF498 = system: XF498
RXF 631 = system: RXF 631

Measured: GI50

CC(C)=CCC/C(C)=C/CC/C(C)=C/CC/C=C(\C)CC/C=C(\C)CCC1SC1(C)C (stereo unspecified)
inactive: SNB-78 > 100 µM | M19-MEL > 100 µM | DMS-114 75.7 µM | KM-20L2 > 100 µM | HOP-18 > 100 µM | LXFL 529 > 100 µM | DLD-1 > 100 µM

CCSC1(SCC)CC(Cc2ccc(OC)cc2)N(/C=N/C(C)(C)C)C1 (stereo unspecified)
inactive: SNB-78 31.8 µM | M19-MEL 29 µM | DMS-114 20.1 µM | KM-20L2 12.9 µM | HOP-18 41.1 µM | LXFL 529 25.3 µM | XF498 18.1 µM | DLD-1 33.5 µM

Cn1c(=O)c(C(c2ccc([N+](=O)[O-])cc2)c2c(O)c3ccccc3n(C)c2=O)cc2ccccc21 (stereo unspecified)
inactive: SNB-78 43.2 µM | M19-MEL 35.5 µM | DMS-114 56.2 µM | RXF 631 49.9 µM | KM-20L2 45 µM | HOP-18 42.5 µM | LXFL 529 42.2 µM | XF498 55.3 µM | DLD-1 36.8 µM

O=C1c2ccccc2C2(O)Nc3c(ccc4ccccc34)C12O (stereo unspecified)
inactive: SNB-78 > 100 µM | M19-MEL > 100 µM | DMS-114 60 µM | KM-20L2 > 100 µM | HOP-18 > 100 µM | LXFL 529 67.8 µM | DLD-1 > 100 µM

CCCCCCCCCCCCCCCCOC(=O)C(C(=O)OCCCCCCCCCCCCCCCC)[N+](C)(C)CCOC(C)=O
inactive: SNB-78 19.9 µM | M19-MEL 13.9 µM | DMS-114 17.9 µM | RXF 631 12.5 µM | KM-20L2 18.6 µM | HOP-18 16.7 µM | LXFL 529 16.1 µM | DLD-1 14.2 µM

O=C1OC(/C=C/c2ccccc2)C(=O)C1=O (stereo unspecified)
inactive: M19-MEL > 100 µM | KM-20L2 > 100 µM | HOP-18 23.8 µM | LXFL 529 > 100 µM | XF498 > 100 µM | DLD-1 > 100 µM

Cn1nc(-c2ccccc2)c2c(/C=C/c3ccc(F)cc3)onc2c1=O
inactive: M19-MEL > 100 µM | KM-20L2 > 100 µM | HOP-18 11.3 µM | LXFL 529 > 100 µM | XF498 14.8 µM | DLD-1 > 100 µM

CCn1cc(/C=C/C(C)c2cn(CC)c(=O)[nH]c2=O)c(=O)[nH]c1=O (stereo unspecified)
inactive: M19-MEL > 100 µM | DMS-114 > 100 µM | RXF 631 > 100 µM | KM-20L2 > 100 µM | HOP-18 > 100 µM | LXFL 529 > 100 µM | DLD-1 > 100 µM

COC(=O)[C@@H]1C(=O)O[C@@H](c2ccc3c(c2)OCO3)[C@@H]1C(=O)OC.COC(=O)[C@H]1C(=O)O[C@@H](c2ccc3c(c2)OCO3)[C@@H]1C(=O)OC
inactive: SNB-78 > 100 µM | M19-MEL > 100 µM | DMS-114 > 100 µM | RXF 631 > 100 µM | KM-20L2 > 100 µM | LXFL 529 > 100 µM | DLD-1 > 100 µM

N#CC12CC3(CCC1CCC1(C2)OCCO1)OCCO3 (stereo unspecified)
inactive: SNB-78 > 100 µM | M19-MEL > 100 µM | DMS-114 > 100 µM | RXF 631 > 100 µM | KM-20L2 > 100 µM | HOP-18 > 100 µM | LXFL 529 > 100 µM | XF498 > 100 µM | DLD-1 > 100 µM

NC(=O)Nc1c([N+](=O)[O-])cc(C(F)(F)F)cc1[N+](=O)[O-]
inactive: SNB-78 > 100 µM | RXF 631 65.9 µM | KM-20L2 29.2 µM | LXFL 529 > 100 µM | XF498 53.6 µM

O=C(CCc1nnc2s/c(=C\c3ccccc3)c(=O)n12)Nc1cc(Cl)ccc1Cl
inactive: SNB-78 > 100 µM | M19-MEL > 100 µM | DMS-114 > 100 µM | RXF 631 > 100 µM | KM-20L2 > 100 µM | HOP-18 > 100 µM | LXFL 529 > 100 µM | XF498 > 100 µM | DLD-1 > 100 µM

C=CCN(N=O)C(=O)ON1C(=O)CCC1=O
inactive: SNB-78 > 100 µM | M19-MEL > 100 µM | DMS-114 > 100 µM | RXF 631 > 100 µM | KM-20L2 > 100 µM | HOP-18 > 100 µM | LXFL 529 > 100 µM | DLD-1 > 100 µM

COc1ccc(C2CCc3cc4c(cc3/C2=N/OC(C)=O)OCO4)cc1OC (stereo unspecified)
inactive: SNB-78 41.4 µM | M19-MEL 22.1 µM | DMS-114 10.7 µM | RXF 631 25.5 µM | KM-20L2 22.3 µM | HOP-18 26.7 µM | LXFL 529 26.4 µM | XF498 18.4 µM

c1ccc(/N=C2\c3ccccc3C3=NCCCN32)cc1
inactive: SNB-78 > 100 µM | M19-MEL 53.6 µM | DMS-114 28.2 µM | RXF 631 85.5 µM | KM-20L2 59.2 µM | LXFL 529 43.3 µM | XF498 85.5 µM | DLD-1 39.2 µM

COCCCCCC(=O)CP(=O)(OC)OC
inactive: SNB-78 > 100 µM | M19-MEL > 100 µM | DMS-114 > 100 µM | KM-20L2 > 100 µM | HOP-18 > 100 µM | LXFL 529 > 100 µM | XF498 > 79.6 µM | DLD-1 > 100 µM

CN(C)c1ccc(/C=c2\sc3nc4ccccc4n3c2=O)cc1
inactive: SNB-78 > 100 µM | M19-MEL > 100 µM | DMS-114 > 100 µM | RXF 631 > 100 µM | KM-20L2 > 100 µM | HOP-18 > 100 µM | LXFL 529 > 100 µM | XF498 > 100 µM | DLD-1 > 100 µM

C/C=C1/C=CC2c3[nH]c4ccccc4c3CCN2C1 (stereo unspecified)
inactive: M19-MEL > 400 µM | DMS-114 296 µM | RXF 631 > 400 µM | KM-20L2 > 400 µM | HOP-18 7.11 µM | LXFL 529 > 400 µM | XF498 > 400 µM | DLD-1 > 400 µM

CCC(C)c1cccc(C)c1NC(=O)C(=O)Cc1nc2ccccc2s1 (stereo unspecified)
inactive: SNB-78 > 100 µM | M19-MEL > 100 µM | DMS-114 > 100 µM | KM-20L2 > 100 µM | HOP-18 > 100 µM | LXFL 529 > 100 µM | XF498 > 100 µM | DLD-1 > 100 µM

CC1(C)CCC(Sc2ccccc2)O1 (stereo unspecified)
inactive: SNB-78 > 100 µM | M19-MEL > 100 µM | DMS-114 > 100 µM | KM-20L2 > 100 µM | LXFL 529 > 100 µM | XF498 > 100 µM | DLD-1 > 100 µM

O=C(NCCOCCO)c1ccc(O)cc1
inactive: M19-MEL > 100 µM | DMS-114 > 100 µM | KM-20L2 > 100 µM | HOP-18 > 100 µM | LXFL 529 > 100 µM | XF498 55 µM | DLD-1 > 100 µM

COc1ccc(NC(=O)CC/C(CC(=O)c2ccco2)=N/Nc2ccc([N+](=O)[O-])cc2[N+](=O)[O-])cc1
inactive: SNB-78 > 100 µM | M19-MEL 58.1 µM | DMS-114 23.6 µM | RXF 631 38.8 µM | KM-20L2 > 100 µM | HOP-18 26.2 µM | LXFL 529 43.2 µM | XF498 22.8 µM

Nc1ccccc1N
inactive: M19-MEL > 100 µM | HOP-18 > 100 µM | LXFL 529 > 100 µM | DLD-1 > 100 µM

Reference: ChEMBL document CHEMBL1201862, “PubChem BioAssay data set” (2004)
